# According to US8729053B2, “Nuclear factor kappa B pathway inhibitor composition and use of same” (The United States of America, as represented by the …, priority 2008, dated 2014):
# Where a name gives a salt, the structure may show the parent alone.
# Legend:
# NFκB [1] = assay: NFκB luciferase reporter assay in HEK293 cells; format: cell-based
# Procedure: (§1) All expression plasmids were transiently transfected into HEK293 cells in a 96-well plate (0.1 μg/well) by using Effectene transfection reagent (Qiagen, Valencia, Calif.) according to the manufacturer's manual. HEK293 cells were maintained in Dulbecco's modified Eagle medium (Sigma, St. Louis, Mo.) supplemented with 10% fetal bovine serum (Atlanta Biologicals, Lawrenceville, Ga.) and incubated at 37° C. in a 5% CO2 incubator. After 24 hrs incubation, the medium was changed to DMEM with 0.2% FBS, and the transfectants were exposed to various concentrations of compound I and TPA (10 ng/ml). Cells were lysed with passive lysis buffer and the luciferase assay was performed using the Firefly-Luciferase reporter assay system (Promega, Madison, Wis.) and MLX Luminometer (Dynex Technology, Chantilly, Va.).
# Three different luciferase reporter genes, AP-1 reporter containing four times TRE consensus originated from GCN4 and SRE reporter purchased from Stratagene (La Jolla, Calif.) respectively are as described previously (Suzukawa et al., Environ. Health Perspect., 2002, 110, 865-70). NFκB reporter is driven by five times NFκB responsive element inserted into Cis-reporter backbone (Stratagene, La Jolla, Calif.). Others include mouse COX-2 promoter region from −203 to +70 relative to the transcription site inserted into pTIS10L vector (Kim and Fischer, J. Biol. Chem., 1998, 273, 27686-94), human uPAR promoter region from −141 to +47 relative to transcription start site in pGL3 vector (Wang et al., Eur. J. Biochem., 2000, 267, 3248-54), and human VEGF promoter sequence from −2274 to +379 inserted into the pGL2 vector (Ding et al., J. Biol. Chem., 2006, 281, 9093-100).
# To evaluate whether the compound I biological activity can imitate TAM67 specificity, three different transcriptional promoter reporters were used, AP-1, NFκB, and SRE (Serum response element) in luciferase reporter assays (FIG. 1A: The transfected cells were pre-treated with varied concentrations of compound I or DMSO for 1 hour before 18 hours stimulation by TPA (10 ng/ml) or DMSO as vehicle. An asterisk (*) indicates a separate experiment with NFκB dependent luciferase only. Assays were performed with two independent experiments each in quadruplicate.). All three activities were induced by TPA but only induction of AP-I and NFκB were inhibited by TAM67. The SRE reporter was used as a specificity control and indicator of cell proliferation. TPA-induced SRE activity was not repressed by TAM67 when coexpressed with the SRE-Luc reporter in HEK293 cells. The same concentration (10 ng/ml, 16.2 nM) and incubation time (18 hrs) were used for TPA induction as previously used for the high throughput screen (HTS) (Ruocco et al., J. Biomol. Screen., 2007, 12, 133-9) along with 1 h pretreatment of compound I. The screening results had tested concentrations as high as 40 μM compound I with cell numbers showing 95.5+/−6.2% of DMSO control (ave+/− sd, n=3) by the XTT assay in HEK293T cells.
# NFκB [2] = assay: EMSA of NFκB DNA binding, HEK293 nuclear fractions; format: cell-based
# Procedure: (§2) EMSA was performed with the nuclear fraction of HEK293 cell using LightShift Chemiluminescent EMSA Kit (Pierce Biotechnology, Rockford, Ill.) according to the manufacture's instruction. Oligonucleotides for NFκB, NF-1, and AP-1 were labeled with biotin by Biotin 3′ End DNA labeling Kit (Pierce Biotechnology, Rockford, Ill.). The quantified 15 μg of nuclear extracts were incubated for 20 mins with 1 μg/μl Poly (dI.dC), biotin end-label target nucleotides in 20 μl binding buffer DNA-protein complexes were fractionated on 6% a polyacrylamide gel and transferred to a nylon membrane. The membranes were processed to detect biotin-label DNA by cross-linking, blocking, and detection incubations. Results were obtained by X-ray film exposure for 10 sec and development. The target sequences of oligonucleotides for NFκB, NF-1, and AP-1 are as follows;
# (§3) To determine whether the effect of compound I on nuclear translocation of NFκB leads to inhibited binding of NFκB proteins to DNA, EMSA in HEK293 cells was performed. […] TPA-induced binding complex was attenuated by pretreatment with compound I in a dose-dependent manner (lanes 5-9). This binding inhibition parallels the inhibition of luciferase reporter transactivation and inhibition of nuclear translocation of NFκB proteins. The TPA-induced binding complex disappeared when the labeled NFκB oligonucleotide was competed with an excess of unlabelled probe (90× fold).
# AP-1 = assay: EMSA of AP-1 DNA binding, HEK293 nuclear fractions; format: cell-based; conditions: 17 μM
# Procedure: as §2
# as §3, with “The TPA-induced binding complex disappeared when the labeled NFκB oligonucleotide was competed with an excess of unlabelled probe (90× fold).” left out
# NF-1 = assay: EMSA of NF-1 DNA binding, HEK293 nuclear fractions; format: cell-based; conditions: 17 μM
# Procedure: as §2
# as §3, with “The TPA-induced binding complex disappeared when the labeled NFκB oligonucleotide was competed with an excess of unlabelled probe (90× fold).” left out
# uPAR promoter = uPAR promoter luciferase reporter assay in HEK293 cells; format: cell-based, human; conditions: TPA 10 ng/ml 18 hours
# Procedure: as §1
# Three different luciferase reporter genes, AP-1 reporter containing four times TRE consensus originated from GCN4 and SRE reporter purchased from Stratagene (La Jolla, Calif.) respectively are as described previously (Suzukawa et al., Environ. Health Perspect., 2002, 110, 865-70). […]
# Inhibition of NFκB transactivation would be expected to result in suppressed expression of genes whose transcription depends on NFκB. Quantitative RT-PCR was used to measure endogenous levels of IL-6 mRNA, transcribed from a gene whose transcription depends on NFκB but not AP-1. […]
# [3] = system: NCI-60 panel of human cancer cell lines; assay: NCI-60 cancer screen, growth inhibition; format: cell-based
# Text: Thus in addition to inhibiting tumorigenesis (transformation) and tumor progression (invasion), compound I may have potential for tumor growth inhibition in some cancer sites.
# [4] = concentrations as low as 1.1 μM
smiles,measurement,setting,value
"Cc1cc(N)ccc1N=Nc1ccc(S(=O)(=O)CCOS(=O)(=O)O)cc1 [compound I, 2-(4-((4-amino-2-methylphenyl)diazenyl)phenylsulfonyl)ethyl hydrogen sulfate]",Inhibition of TPA-induced NFκB luciferase activity,"NFκB [1]; HEK293, TPA 10 ng/ml, compound I at all concentrations tested",dose-dependently inhibited
same,IC50,"NFκB [1]; Homo sapiens, HEK293, 1 h pretreatment, TPA 10 ng/ml 18 hrs, read-out: IC50 against TPA-induced NFκB reporter",~4 µM
same,Inhibition of NFκB induced by TNFα,NFκB [1]; TNFα induction,dose-dependent inhibition
same,TPA-induced NFκB luciferase activity,NFκB [1]; compound at 17.0 μM,completely blocked to the non-induced level
same,Transcriptional activation of NFκB dependent genes,NFκB [1]; [4],repressed
same,Basal NFκB luciferase activity,NFκB [1]; without TPA induction,"inhibited, but to a lesser extent"
same,NFκB DNA binding,NFκB [2]; [4],repressed
same,"TPA-induced NFκB DNA binding complex, dose-dependent manner","NFκB [2]; lanes 5-9, 1 hour pretreatment, TPA 18 hours",attenuated
same,TPA-induced NFκB DNA binding complex,NFκB [2]; pretreatment at 17 μM,marked loss of binding complex
same,AP-1 DNA binding activity,AP-1,little or no effect
same,NF-1 DNA binding activity,NF-1,little or no effect
same,uPAR luciferase activity,uPAR promoter,dose-dependent inhibition
same,inhibition at 1 µM,"[3]; Homo sapiens, compound at 1 μM, read-out: Growth inhibition of leukemia lines",> 50%
same,Killing of leukemia lines,[3]; concentrations up to 100 μM,does not kill
same,Sensitivity of leukemia and breast cancer cell lines versus lines from other cancer sites,[3]; growth inhibition,more sensitive
same,Concentration at which most of the NCI-60 lines showed growth inhibition,[3]; most of the NCI-60 human cancer cell lines,greater than 10 μM
